The test system of data set [1] is colorectal cancer cell line HCT116. The data set can be described thus: Cell growth inhibitory activity, HCT116. It is filed as cell-based. How it is done:
(§1) The cell growth inhibitory activity against a colorectal cancer cell line HCT116 was measured. As an index of cell growth inhibitory activity, a concentration at which cell growth was inhibited by 50% as compared with a control (IC50) was used. The method is as follows. HCT116 was added to a 6-well plate by 5×10^4, compounds having various concentrations were added after 24 hours, and the number of cells was counted after 72 hours of culture. As the control, DMSO was used in an amount equal to the amount added in accordance with the addition concentration of the highest-concentration compound. The number of cells at each concentration relative to the control was expressed as a percentage.
(§2) The method is as described above.
(§3) The cell growth inhibitory activity (IC50) of each of curcumin, GO-Y199, and GO-Y206 against the colorectal cancer cell lines DLD-1 and HCT116 and the gastric cancer cell lines KATO III and H-111-TC was measured. The method is as described above.

A further data set can be described thus: Turbidity measurement. It is filed as physicochemical. The conditions noted are these: for Turbidity (Relative Value): Table 3, relative to curcumin = 1. As to the method:
The turbidity of various compounds was measured. The method is as follows. […] Curcumin was cloudy while GO-Y199 was clear. The solubility was measured with a turbidimeter (WZB-170 Portable Turbidimeter available from REX). The turbidity of the compound was corrected for concentration.
Subsequently, GO-Y206 and curcumin were adjusted to final concentrations of 1.25 μM and 5.00 μM, respectively, and their turbidities were measured.

Data set [2] concerns gastric cancer cell line H-111-TC. The data set is described as follows: Cell growth inhibitory activity, H-111-TC. In kind it is cell-based. The conditions noted are these: Table 6. As to the method:
as §1, with “percentage. In Table 3, the turbidities of the compounds are also indicated.” for “percentage.”
The cell growth inhibitory activity (IC50) of each of curcumin, GO-Y199, and GO-Y206 against the colorectal cancer cell lines DLD-1 and HCT116 and the gastric cancer cell lines KATO III and H-111-TC was measured. The method is as described above. FIG. 8 indicates the results of cell growth inhibitory activity of these compounds against various cancer cell lines.

Data set [3] relates to gastric cancer cell line KATO III. The data set is described as follows: Cell growth inhibitory activity, KATO III. In kind it is cell-based. The conditions noted are these: Table 6; read-out: IC50 (μM) KATO III. How it is done: as §1, §2, §3
Data set [4] relates to colorectal cancer cell line DLD-1. The data set is described as follows: Cell growth inhibitory activity, DLD-1. In kind it is cell-based. The conditions noted are these: Table 6; read-out: IC50 (μM) DLD-1. As to the method:
as §1, §2, §3

In data set [5] the test system is cutaneous T-cell lymphoma cell line HUT78. The data set is described as follows: Cell growth inhibitory activity, HUT78. It is filed as cell-based. As to conditions: Table 10. How it is done:
[The source words this procedure for another cell line and reports this cell line under the same test.] as §1, §2

For data set [6], the system named is cutaneous T-cell lymphoma cell line HH. The data set is described as follows: Cell growth inhibitory activity, HH. In kind it is cell-based. As to conditions: Table 10. As to the method: [The source words this procedure for another cell line and reports this cell line under the same test.] as §1, §2
Data set [7] has as its system pancreatic cancer cell line Panc-1. The data set can be described thus: Cell growth inhibitory activity, Panc-1. In kind it is cell-based. The conditions noted are these: Table 7. How it is done:
[The source words this procedure for another cell line and reports this cell line under the same test.] as §1, §2

In data set [8] the test system is pancreatic cancer cell line ASPC-1. The data set can be described thus: Cell growth inhibitory activity, ASPC-1. The conditions noted are these: Table 7. It is filed as cell-based. How it is done: [The source words this procedure for another cell line and reports this cell line under the same test.] as §1, §2
Data set [9] has as its system vascular endothelial cells HUVEC-R resistant to Ki8751. The data set can be described thus: Angiogenesis inhibitory activity, HUVEC-R. It is filed as cell-based. The conditions noted are these: Table 11; number of cells after 72 hours. As to the method:
HUVEC-R was cultured in the presence of each compound using an EGMTM-2 Bullet Kit (Takara Bio Inc., Otsu, Japan), and the number of cells was measured after 72 hours. In addition, IC50 was determined from the results.

Data set [10] has as its system malignant melanoma cell line G361. The data set can be described thus: Cell growth inhibitory activity, G361. In kind it is cell-based. The conditions noted are these: Table 9. How it is done: [The source words this procedure for another cell line and reports this cell line under the same test.] as §1, §2
For data set [11], the system named is malignant pleural mesothelioma cell line NCI-H226. The data set is described as follows: Cell growth inhibitory activity, NCI-H226. It is filed as cell-based. The conditions noted are these: Table 8. As to the method:
as §1, with “percentage. In Table 3, the turbidities of the compounds are also indicated.” for “percentage.”
(§4) GO-Y198, GO-Y199, and GO-Y200 against malignant pleural mesothelioma cell lines NCI-H226 and MSTO211H was measured. The method is as described above. For comparison, the IC50 of cisplatin (CDDP), a cytocidal anticancer agent, is also indicated.

Data set [12] relates to malignant pleural mesothelioma cell line MSTO211H. The data set is described as follows: Cell growth inhibitory activity, MSTO211H. It is filed as cell-based. As to conditions: Table 8. As to the method:
as §1, with “percentage. In Table 3, the turbidities of the compounds are also indicated.” for “percentage.”
as §4

[13] abbreviates: Table 3, HCT116, cell count after 72 hours of culture vs DMSO control, read-out: IC50.
Where [14] appears, read: Table 1, average turbidity corrected for final concentration (1.7-170 μm, per compound).
Setting [15] is: Table 1, turbidity/μm relative to curcumin = 1.

Read-outs that look alike come from different tables or passages of the source.

Consider `COCOc1cc(C=CC(=O)CC(SCCOCCOCCOCCOCc2cn(CCCOC(=O)CCCCC3SCC4NC(=O)NC43)nn2)c2cc(OCOC)cc(OCOC)c2)cc(OCOC)c1` (mixture of isomers) [GO-Y195], for which, in [1] (setting [13]), the 50% inhibitory concentration (IC50) is 1.8 µM.
For `COCOc1cc(C=CC(=O)CC(SCCOCCOCCOCCOCc2cn(C3OC(CO)C(O)C(O)C3O)nn2)c2cc(OCOC)cc(OCOC)c2)cc(OCOC)c1` (mixture of isomers) [GO-Y196], the Turbidity/μm in “Turbidity measurement” (setting [14]) is reported as 0 NTU/μM. Moreover, the “Relative Value (turbidity)” value in “Turbidity measurement” (setting [15]) is listed as 0. In addition, the “Turbidity (Relative Value)” value in “Turbidity measurement” was found to be 0. Also, the “Ave Turbidity (NTU)” value in “Turbidity measurement” (final conc. 8.3 μm in DDW) is 0 NTU. Also, the IC50 in data set [1] (setting [13]) was found to be 0.67 µM.
Take `COCOc1cc(C=CC(=O)CC(SCCOCCOCCOCCOCc2cn(C3CC(O)C(O)C(CO)O3)nn2)c2cc(OCOC)cc(OCOC)c2)cc(OCOC)c1` (mixture of isomers) [GO-Y206]: the concentration for half-maximal inhibition (IC50) turned out to be 4.67 µM in data set [2]; 3.11 µM in data set [3]; 1.21 µM in [4]; 0.91 µM in [1] (Table 6, read-out: IC50 (μM) HCT116). Besides, the Turbidity/μm in the data set “Turbidity measurement” (Table 2, final conc. 1.25 μM) worked out at 0.144 NTU/μM; in the data set “Turbidity measurement” (Table 2, final conc. 5.0 μM), 0.364 NTU/μM. Further, the “Turbidity (NTU)” value in “Turbidity measurement” (Table 2, final conc. 5.0 μM) came out at 1.82 NTU. The “Relative Value (turbidity)” value in “Turbidity measurement” (Table 2, value in parentheses, relative to curcumin = 1.00) is reported as “(0.052)”. Further, the “turbidity as percent of curcumin” value in “Turbidity measurement” (from averaged NTU/μM) was 5%.
For the compound `COCOc1cc(/C=C/C(=O)CC(SCC(=O)OC)c2cc(OCOC)cc(OCOC)c2)cc(OCOC)c1` (racemic) [GO-Y136, reference compound], the Turbidity/μm in the data set “Turbidity measurement” (setting [14]) is reported as 0.024 NTU/μM. Besides, in the data set “Turbidity measurement” (setting [15]), the “Relative Value (turbidity)” value came to 0.083. Besides, in “Turbidity measurement”, the “Turbidity (Relative Value)” value is 0.083. Besides, the “Ave Turbidity (NTU)” value in the data set “Turbidity measurement” (final conc. 1.7 μm in DDW) came out at 0.04 ± 0.0082 NTU. For the same compound, the half-inhibitory concentration (IC50) in data set [1] (setting [13]) came to 0.89 µM.
Take `COCOc1cc(/C=C/C(=O)CC(SCCOCCOCCOCCOCc2cn(CCCO)nn2)c2cc(OCOC)cc(OCOC)c2)cc(OCOC)c1` (racemic) [GO-Y194]: in [1] (setting [13]), the IC50 was determined as 0.5 µM.
Consider `COc1cc(/C=C/C(=O)/C=C/c2ccc(O)c(OC)c2)ccc1O` [GO-Y022, reference compound], for which the IC50 in data set [5] amounted to 4.03 µM; in [6], 9.16 µM; in [7], 6.67 µM; in data set [8] it was 8.52 µM; in data set [9] it was 4.7 µM; in [10], 3.1 µM. Further, in data set [1] (setting [13]), the IC50 was 2.02 µM. Also, in “Turbidity measurement” (setting [14]), the Turbidity/μm came out at 0.014 NTU/μM. Further, in “Turbidity measurement” (setting [15]), the “Relative Value (turbidity)” value was determined as 0.048. Besides, in the data set “Turbidity measurement”, the “Turbidity (Relative Value)” value was 0.048. Also, in the data set “Turbidity measurement” (final conc. 8.3 μm in DDW), the “Ave Turbidity (NTU)” value turned out to be 0.12 ± 0.0094 NTU.
Turning to `COCOc1cc(/C=C/C(=O)/C=C/c2cc(OCOC)cc(OCOC)c2)cc(OCOC)c1` [GO-Y030, (1E,4E)-1,5-bis-[3,5-bis(methoxymethoxy)phenyl]pentadiene-3-one, reference compound], the Turbidity/μm in the data set “Turbidity measurement” (setting [14]) came out at 2.68 NTU/μM. Further, the “Ave Turbidity (NTU)” value in “Turbidity measurement” (final conc. 17 μm in DDW) is given as 45.6 ± 0.21 NTU. Besides, the “Turbidity (NTU)” value in the data set “Turbidity measurement” (individual measurements, final conc. 170 μm, DMSO stock diluted in 30 mL DDW) was “over limit”.
Turning to `COCOc1cc(/C=C/C(=O)CC(SCCOCCOCCOCCOCc2cn([C@H]3O[C@@H](CO)[C@H](O)[C@@H](O)[C@@H]3O)nn2)c2cc(OCOC)cc(OCOC)c2)cc(OCOC)c1` (some centres unmarked) [GO-Y197], the half-maximal inhibitory concentration (IC50) in data set [5] came out at 0.81 µM; in [11], 4 µM; in data set [6] it was 1.11 µM; in data set [9], 0.96 µM; in data set [12], 3.9 µM; in data set [10], 1.1 µM. Further, in [1] (setting [13]), the IC50 was determined as 0.7 µM. Further, in the data set “Turbidity measurement” (setting [14]), the Turbidity/μm was 0 NTU/μM. Moreover, the “Relative Value (turbidity)” value in “Turbidity measurement” (setting [15]) was determined as 0. For the same compound, the “Turbidity (Relative Value)” value in the data set “Turbidity measurement” is recorded as 0. Besides, the “Ave Turbidity (NTU)” value in “Turbidity measurement” (final conc. 8.3 μm in DDW) is on record as 0 NTU.
Turning to `COCOc1cc(/C=C/C(=O)CC(SCCOCCOCCOCCOCc2cn([C@H]3O[C@H](CO)[C@@H](O)[C@H](O)[C@@H]3O)nn2)c2cc(OCOC)cc(OCOC)c2)cc(OCOC)c1` (some centres unmarked) [GO-Y198], the IC50 turned out to be 0.51 µM in data set [5]; 4.2 µM in [11]; 1.15 µM in [6]; 1.08 µM in [9]; 0.9 µM in data set [12]; 0.44 µM in data set [1] (setting [13]). In “Turbidity measurement” (setting [14]), the Turbidity/μm is 0 NTU/μM. Besides, in the data set “Turbidity measurement” (setting [15]), the “Relative Value (turbidity)” value is 0. In addition, in “Turbidity measurement”, the “Turbidity (Relative Value)” value is 0. In addition, the “Ave Turbidity (NTU)” value in the data set “Turbidity measurement” (final conc. 8.3 μm in DDW) came out at 0 NTU.
Take `COCOc1cc(/C=C/C(=O)CC(SCCOCCOCCOCCOCc2cn([C@@H]3O[C@H](CO)[C@@H](O[C@H]4O[C@H](CO)[C@@H](O)[C@H](O)[C@H]4O)[C@H](O)[C@H]3O)nn2)c2cc(OCOC)cc(OCOC)c2)cc(OCOC)c1` (some centres unmarked) [GO-Y200]: the IC50 came out at 0.91 µM in data set [5]; 4.7 µM in data set [11]; 1.31 µM in [6]; 0.91 µM in [7]; 1.33 µM in [8]; 1.3 µM in data set [9]. The IC50 in data set [12] worked out at 4.5 µM; in [1] (setting [13]), 0.42 µM. The compound further gave a Turbidity/μm in the data set “Turbidity measurement” (setting [14]) of 0 NTU/μM. Also, the “Relative Value (turbidity)” value in the data set “Turbidity measurement” (setting [15]) is recorded as 0. Also, the “Turbidity (Relative Value)” value in the data set “Turbidity measurement” stood at 0. In addition, in the data set “Turbidity measurement” (final conc. 8.3 μm in DDW), the “Ave Turbidity (NTU)” value is given as 0 NTU.
